Data from article PMC8113725, “Structure–activity relationship of ipglycermide binding to phosphoglycerate mutases” (The Journal of Biological Chemistry, 2021).
Bridge positions count the residues as written; N and C are the ends. Square brackets hold non-standard residues; d marks the D form. Peptide text beside a SMILES is read from it.

Target: D. immitis iPGM (Dirofilaria immitis, UniProt F4ZE01)
Experiment: biochemical
Conditions: Di iPGM Ave IC50 (M)

SMILES	IC50 [M]
CC(C)C[C@H](NC(=O)[C@H](Cc1ccc(O)cc1)NC(=O)[C@@H]1CSCC(=O)N[C@H](Cc2ccc(O)cc2)C(=O)N[C@@H](CC(=O)O)C(=O)N[C@@H](Cc2ccc(F)cc2)C(=O)N2CCC[C@H]2C(=O)NCC(=O)N[C@@H](CC(=O)O)C(=O)N[C@@H](Cc2ccccc2)C(=O)N1)C(=O)N[C@@H](Cc1ccc(O)cc1)C(=O)NCC(=O)N[C@H](C(=O)N[C@@H](CS)C(N)=O)[C@@H](C)O	1.41e-09
CC(C)C[C@H](NC(=O)[C@H](Cc1ccc(O)cc1)NC(=O)[C@@H]1CSCC(=O)N[C@H](Cc2ccc(O)cc2)C(=O)N[C@@H](CC(=O)O)C(=O)N[C@@H](Cc2ccccc2)C(=O)N2CCC[C@H]2C(=O)NCC(=O)N[C@@H](CC(=O)O)C(=O)N[C@@H](Cc2ccc(O)cc2)C(=O)N1)C(=O)N[C@@H](Cc1ccc(O)cc1)C(=O)NCC(=O)N[C@H](C(=O)N[C@@H](CS)C(N)=O)[C@@H](C)O [Ce-2 Y3F] ({CH2CO}-[dY]DFPGDYCYLYGTC-NH2; thioether N-8)	2.42e-09
CC(C)C[C@H](NC(=O)[C@H](Cc1ccc(O)cc1)NC(=O)[C@@H]1CSCC(=O)N[C@H](Cc2ccc(O)cc2)C(=O)N[C@@H](CCC(=O)O)C(=O)N[C@@H](Cc2ccc(O)cc2)C(=O)N2CCC[C@H]2C(=O)NCC(=O)N[C@@H](CC(=O)O)C(=O)N[C@@H](Cc2ccc(O)cc2)C(=O)N1)C(=O)N[C@@H](Cc1ccc(O)cc1)C(N)=O [Ce-2d D2E]	9.99e-08
CC(C)C[C@H](NC(=O)[C@H](Cc1ccc(O)cc1)NC(=O)[C@@H]1CSCC(=O)N[C@H](Cc2ccc(O)cc2)C(=O)NCC(=O)N[C@@H](Cc2ccc(O)cc2)C(=O)N2CCC[C@H]2C(=O)NCC(=O)N[C@@H](CC(=O)O)C(=O)N[C@@H](Cc2ccc(O)cc2)C(=O)N1)C(=O)N[C@@H](Cc1ccc(O)cc1)C(N)=O [Ce-2d D2G]	1.32e-06
CC(C)C[C@H](NC(=O)[C@H](Cc1ccc(O)cc1)NC(=O)[C@@H]1CSCC(=O)N[C@H](Cc2ccc(O)cc2)C(=O)N[C@@H](C(C)C)C(=O)N[C@@H](Cc2ccc(O)cc2)C(=O)N2CCC[C@H]2C(=O)NCC(=O)N[C@@H](CC(=O)O)C(=O)N[C@@H](Cc2ccc(O)cc2)C(=O)N1)C(=O)N[C@@H](Cc1ccc(O)cc1)C(N)=O [Ce-2d D2V]	5.77e-07
CC(C)C[C@H](NC(=O)[C@H](Cc1ccc(O)cc1)NC(=O)[C@@H]1CSCC(=O)N[C@H](Cc2ccc(O)cc2)C(=O)N[C@@H](CC(=O)O)C(=O)N[C@@H](Cc2ccc(O)cc2)C(=O)N2CCC[C@H]2C(=O)NCC(=O)N[C@@H](CC(N)=O)C(=O)N[C@@H](Cc2ccc(O)cc2)C(=O)N1)C(=O)N[C@@H](Cc1ccc(O)cc1)C(N)=O [Ce-2d D6N]	6.18e-06
CC(C)C[C@H](NC(=O)[C@H](Cc1ccc(O)cc1)NC(=O)[C@@H]1CSCC(=O)N[C@H](Cc2ccc(O)cc2)C(=O)N[C@@H](CC(=O)O)C(=O)N[C@@H](Cc2ccc(O)cc2)C(=O)N2CCC[C@H]2C(=O)N[C@@H](CCC(N)=O)C(=O)N[C@@H](CC(=O)O)C(=O)N[C@@H](Cc2ccc(O)cc2)C(=O)N1)C(=O)N[C@@H](Cc1ccc(O)cc1)C(N)=O [Ce-2d G5Q]	5.99e-06
CC(C)[C@H](NC(=O)[C@H](Cc1ccc(O)cc1)NC(=O)[C@@H]1CSCC(=O)N[C@H](Cc2ccc(O)cc2)C(=O)N[C@@H](CC(=O)O)C(=O)N[C@@H](Cc2ccc(O)cc2)C(=O)N2CCC[C@H]2C(=O)NCC(=O)N[C@@H](CC(=O)O)C(=O)N[C@@H](Cc2ccc(O)cc2)C(=O)N1)C(=O)N[C@@H](Cc1ccc(O)cc1)C(N)=O [Ce-2d L10V]	1.93e-06
CC(C)C[C@H](NC(=O)[C@H](Cc1ccc(O)cc1)NC(=O)[C@@H]1CSCC(=O)N[C@H](Cc2ccc(O)cc2)C(=O)N[C@@H](CC(=O)O)C(=O)N[C@@H](Cc2ccc(O)cc2)C(=O)N[C@@H](C)C(=O)NCC(=O)N[C@@H](CC(=O)O)C(=O)N[C@@H](Cc2ccc(O)cc2)C(=O)N1)C(=O)N[C@@H](Cc1ccc(O)cc1)C(N)=O [Ce-2d P4A]	7.94e-08
CC(C)C[C@H](NC(=O)[C@H](Cc1ccc(O)cc1)NC(=O)[C@@H]1CSCC(=O)N[C@@H](Cc2ccc(F)cc2)C(=O)N[C@@H](CC(=O)O)C(=O)N[C@@H](Cc2ccc(O)cc2)C(=O)N2CCC[C@H]2C(=O)NCC(=O)N[C@@H](CC(=O)O)C(=O)N[C@@H](Cc2ccc(O)cc2)C(=O)N1)C(=O)N[C@@H](Cc1ccc(O)cc1)C(N)=O [Ce-2d Y1(4F)F]	5.35e-08
CC(C)C[C@H](NC(=O)[C@H](Cc1ccc(O)cc1)NC(=O)[C@@H]1CSCC(=O)N[C@H](Cc2ccc(F)cc2)C(=O)N[C@@H](CC(=O)O)C(=O)N[C@@H](Cc2ccc(O)cc2)C(=O)N2CCC[C@H]2C(=O)NCC(=O)N[C@@H](CC(=O)O)C(=O)N[C@@H](Cc2ccc(O)cc2)C(=O)N1)C(=O)N[C@@H](Cc1ccc(O)cc1)C(N)=O [Ce-2d Y1D(4F)F]	3.7e-08
CC(C)C[C@H](NC(=O)[C@H](Cc1ccc(O)cc1)NC(=O)[C@@H]1CSCC(=O)N[C@H](Cc2ccc(O)cc2)C(=O)N[C@@H](CC(=O)O)C(=O)N[C@@H](Cc2ccc(F)cc2)C(=O)N2CCC[C@H]2C(=O)NCC(=O)N[C@@H](CC(=O)O)C(=O)N[C@@H](Cc2ccc(O)cc2)C(=O)N1)C(=O)N[C@@H](Cc1ccc(O)cc1)C(N)=O [Ce-2d Y3(4F)F]	1.48e-07
CC(C)C[C@H](NC(=O)[C@H](Cc1ccc(O)cc1)NC(=O)[C@@H]1CSCC(=O)N[C@H](Cc2ccc(O)cc2)C(=O)N[C@@H](CC(=O)O)C(=O)N[C@@H](Cc2ccccc2)C(=O)N2CCC[C@H]2C(=O)NCC(=O)N[C@@H](CC(=O)O)C(=O)N[C@@H](Cc2ccc(O)cc2)C(=O)N1)C(=O)N[C@@H](Cc1ccc(O)cc1)C(N)=O [Ce-2d Y3F]	3.2e-06
CC(C)C[C@H](NC(=O)[C@H](Cc1ccc(O)cc1)NC(=O)[C@@H]1CSCC(=O)N[C@H](Cc2ccc(O)cc2)C(=O)N[C@@H](CC(=O)O)C(=O)N[C@@H](Cc2c[nH]c3ccccc23)C(=O)N2CCC[C@H]2C(=O)NCC(=O)N[C@@H](CC(=O)O)C(=O)N[C@@H](Cc2ccc(O)cc2)C(=O)N1)C(=O)N[C@@H](Cc1ccc(O)cc1)C(N)=O [Ce-2d Y3W]	7.09e-06
COc1ccc(C[C@@H]2NC(=O)[C@H](CC(=O)O)NC(=O)CNC(=O)[C@@H]3CCCN3C(=O)[C@H](Cc3ccc(O)cc3)NC(=O)[C@H](CC(=O)O)NC(=O)[C@@H](Cc3ccc(O)cc3)NC(=O)CSC[C@@H](C(=O)N[C@@H](Cc3ccc(O)cc3)C(=O)N[C@@H](CC(C)C)C(=O)N[C@@H](Cc3ccc(O)cc3)C(N)=O)NC2=O)cc1 [Ce-2d Y7(4OMe)F]	6.79e-08
CC(C)C[C@H](NC(=O)[C@H](Cc1ccc(O)cc1)NC(=O)[C@@H]1CSCC(=O)N[C@H](Cc2ccc(O)cc2)C(=O)N[C@@H](CC(=O)O)C(=O)N[C@@H](Cc2ccc(O)cc2)C(=O)N2CCC[C@H]2C(=O)NCC(=O)N[C@@H](CC(=O)O)C(=O)N[C@@H](CO)C(=O)N1)C(=O)N[C@@H](Cc1ccc(O)cc1)C(N)=O [Ce-2d Y7S]	1.78e-07
CC(C)C[C@H](NC(=O)[C@H](Cc1ccc(F)cc1)NC(=O)[C@@H]1CSCC(=O)N[C@H](Cc2ccc(O)cc2)C(=O)N[C@@H](CC(=O)O)C(=O)N[C@@H](Cc2ccc(O)cc2)C(=O)N2CCC[C@H]2C(=O)NCC(=O)N[C@@H](CC(=O)O)C(=O)N[C@@H](Cc2ccc(O)cc2)C(=O)N1)C(=O)N[C@@H](Cc1ccc(O)cc1)C(N)=O [Ce-2d Y9(4F)F]	3.33e-07
COc1ccc(C[C@H](NC(=O)[C@@H]2CSCC(=O)N[C@H](Cc3ccc(O)cc3)C(=O)N[C@@H](CC(=O)O)C(=O)N[C@@H](Cc3ccc(O)cc3)C(=O)N3CCC[C@H]3C(=O)NCC(=O)N[C@@H](CC(=O)O)C(=O)N[C@@H](Cc3ccc(O)cc3)C(=O)N2)C(=O)N[C@@H](CC(C)C)C(=O)N[C@@H](Cc2ccc(O)cc2)C(N)=O)cc1 [Ce-2d Y9(4OMe)F]	2.04e-06
CC(C)C[C@H](NC(=O)[C@H](Cc1ccccc1)NC(=O)[C@@H]1CSCC(=O)N[C@H](Cc2ccc(O)cc2)C(=O)N[C@@H](CC(=O)O)C(=O)N[C@@H](Cc2ccc(O)cc2)C(=O)N2CCC[C@H]2C(=O)NCC(=O)N[C@@H](CC(=O)O)C(=O)N[C@@H](Cc2ccc(O)cc2)C(=O)N1)C(=O)N[C@@H](Cc1ccc(O)cc1)C(N)=O [Ce-2d Y9F]	1.43e-05
CC(C)C[C@H](NC(=O)[C@H](Cc1ccc(O)cc1)NC(=O)[C@@H]1CSCC(=O)N[C@H](Cc2ccc(O)cc2)C(=O)N[C@@H](CC(=O)O)C(=O)N[C@@H](Cc2ccc(O)cc2)C(=O)N2CCC[C@H]2C(=O)NCC(=O)N[C@@H](CC(=O)O)C(=O)N[C@@H](Cc2ccc(O)cc2)C(=O)N1)C(=O)N[C@@H](Cc1ccc(F)cc1)C(N)=O [Ce-2d Y11(4F)F]	7.11e-08
CC(C)C[C@H](NC(=O)[C@H](Cc1ccc(O)cc1)NC(=O)[C@@H]1CSCC(=O)N[C@H](Cc2ccc(O)cc2)C(=O)N[C@@H](CC(=O)O)C(=O)N[C@@H](Cc2ccc(O)cc2)C(=O)N2CCC[C@H]2C(=O)NCC(=O)N[C@@H](CC(=O)O)C(=O)N[C@@H](Cc2ccc(O)cc2)C(=O)N1)C(=O)N[C@@H](Cc1ccc(O)cc1)C(=O)O [Ce-2d Y11COOH]	7.75e-07
CC(C)C[C@H](NC(=O)[C@H](Cc1ccc(O)cc1)NC(=O)[C@@H]1CSCC(=O)N[C@H](Cc2ccc(O)cc2)C(=O)N[C@@H](CC(=O)O)C(=O)N[C@@H](Cc2ccc(O)cc2)C(=O)N2CCC[C@H]2C(=O)NCC(=O)N[C@@H](CC(=O)O)C(=O)N[C@@H](Cc2ccc(O)cc2)C(=O)N1)C(=O)N[C@@H](Cc1ccccc1)C(N)=O [Ce-2d Y11F]	9.89e-08
CC(C)C[C@H](NC(=O)[C@H](CC(C)C)NC(=O)[C@H](Cc1ccc(O)cc1)NC(=O)[C@@H]1CSCC(=O)N[C@H](Cc2ccc(O)cc2)C(=O)N[C@@H](CC(=O)O)C(=O)N[C@@H](Cc2ccc(O)cc2)C(=O)N2CCC[C@H]2C(=O)NCC(=O)N[C@@H](CC(=O)O)C(=O)N[C@@H](Cc2ccc(O)cc2)C(=O)N1)C(N)=O [Ce-2d Y11L]	2.43e-07
